Laboratory results: PubChem BioAssay (NCI)
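Five compound concentrations were applied to cells in 96-well plates for 48 hours; endpoints were derived by simple linear interpolation of the resulting dose-response curve. At the GI50, growth is halved. Definition used: TGI = concentration required for complete inhibition of growth.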

Key:
Assay in all cases: inhibition of tumour cell growth, NCI panel, 48 h
HOP-62 NSCLC = system: HOP-62 NSCLC
SNB-75 CNS = system: SNB-75 CNS
NCI-H23 lung = system: NCI-H23 lung
CCRF-CEM leukemia = system: CCRF-CEM leukemia
SN12C renal = system: SN12C renal
A549 NSCLC = system: A549 NSCLC
UACC-62 melanoma = system: UACC-62 melanoma
KM12 colon = system: KM12 colon
HCT-116 colon = system: HCT-116 colon
UO-31 renal = system: UO-31 renal
MCF7 breast = system: MCF7 breast
BT-549 breast = system: BT-549 breast
M14 melanoma = system: M14 melanoma
SK-MEL-5 melanoma = system: SK-MEL-5 melanoma
TK-10 renal = system: TK-10 renal
PC-3 prostate = system: PC-3 prostate
DU-145 prostate = system: DU-145 prostate
CAKI-1 renal = system: CAKI-1 renal
SR leukemia = system: SR leukemia
SF-268 CNS = system: SF-268 CNS
MOLT-4 leukemia = system: MOLT-4 leukemia
SF-295 CNS = system: SF-295 CNS
RXF 393 renal = system: RXF 393 renal
786-0 renal = system: 786-0 renal
SF-539 CNS = system: SF-539 CNS
OVCAR-5 ovarian = system: OVCAR-5 ovarian
HL-60(TB) leukemia = system: HL-60(TB) leukemia
HT29 colon = system: HT29 colon
SK-MEL-28 melanoma = system: SK-MEL-28 melanoma
NCI/ADR-RES ovarian = system: NCI/ADR-RES ovarian
COLO 205 colon = system: COLO 205 colon
MDA-MB-435 = system: MDA-MB-435
OVCAR-8 ovarian = system: OVCAR-8 ovarian
NCI-H460 lung = system: NCI-H460 lung
UACC-257 melanoma = system: UACC-257 melanoma
SW-620 colon = system: SW-620 colon
MALME-3M melanoma = system: MALME-3M melanoma
RPMI-8226 leukemia = system: RPMI-8226 leukemia
MDA-MB-231 breast = system: MDA-MB-231 breast
T-47D breast = system: T-47D breast
ACHN renal = system: ACHN renal
K-562 leukemia = system: K-562 leukemia
NCI-H226 lung = system: NCI-H226 lung
SK-OV-3 ovarian = system: SK-OV-3 ovarian
HCC-2998 colon = system: HCC-2998 colon
U251 CNS = system: U251 CNS
OVCAR-3 ovarian = system: OVCAR-3 ovarian
A498 renal = system: A498 renal
HS 578T breast = system: HS 578T breast
LOX IMVI melanoma = system: LOX IMVI melanoma
NCI-H522 lung = system: NCI-H522 lung
SK-MEL-2 melanoma = system: SK-MEL-2 melanoma
IGROV1 ovarian = system: IGROV1 ovarian
OVCAR-4 ovarian = system: OVCAR-4 ovarian
HCT-15 colon = system: HCT-15 colon
EKVX NSCLC = system: EKVX NSCLC

Cc1ccnc2c(NC(C)CCCN)cc(O)c(O)c12 (configuration not stated)
GI50 (HOP-62 NSCLC): 26.1 µM
TGI (HOP-62 NSCLC): > 100 µM
GI50 (SNB-75 CNS): 19 µM
TGI (SNB-75 CNS): 81.1 µM
GI50 (NCI-H23 lung): 3.98 µM
TGI (NCI-H23 lung): 27.3 µM
GI50 (CCRF-CEM leukemia): 4.62 µM
TGI (CCRF-CEM leukemia): 29.3 µM
GI50 (SN12C renal): 2.86 µM
TGI (SN12C renal): 13 µM
GI50 (A549 NSCLC): 20.7 µM
TGI (A549 NSCLC): 75 µM
GI50 (UACC-62 melanoma): 32.3 µM
TGI (UACC-62 melanoma): > 100 µM
GI50 (KM12 colon): 31.5 µM
TGI (KM12 colon): > 100 µM
GI50 (HCT-116 colon): 13.8 µM
TGI (HCT-116 colon): > 100 µM
GI50 (UO-31 renal): 61.9 µM
TGI (UO-31 renal): > 100 µM
GI50 (MCF7 breast): 1.97 µM
TGI (MCF7 breast): 5.9 µM
GI50 (BT-549 breast): 36.1 µM
TGI (BT-549 breast): > 100 µM
GI50 (M14 melanoma): 29.7 µM
TGI (M14 melanoma): > 100 µM
GI50 (SK-MEL-5 melanoma): 17.6 µM
TGI (SK-MEL-5 melanoma): 42.1 µM
GI50 (TK-10 renal): 47.7 µM
TGI (TK-10 renal): > 100 µM
GI50 (PC-3 prostate): 17.1 µM
TGI (PC-3 prostate): 53.8 µM
GI50 (DU-145 prostate): 11.2 µM
TGI (DU-145 prostate): 24.2 µM
GI50 (CAKI-1 renal): 38.7 µM
TGI (CAKI-1 renal): > 100 µM
GI50 (SR leukemia): 29.3 µM
TGI (SR leukemia): 90.3 µM
GI50 (SF-268 CNS): 21.2 µM
TGI (SF-268 CNS): 74.2 µM
GI50 (MOLT-4 leukemia): 6.61 µM
TGI (MOLT-4 leukemia): 34.5 µM
GI50 (SF-295 CNS): 35.2 µM
TGI (SF-295 CNS): > 100 µM
GI50 (RXF 393 renal): 32.3 µM
TGI (RXF 393 renal): > 100 µM
GI50 (786-0 renal): 71.2 µM
TGI (786-0 renal): > 100 µM
GI50 (SF-539 CNS): 18.5 µM
TGI (SF-539 CNS): 41.9 µM
GI50 (OVCAR-5 ovarian): 13.1 µM
TGI (OVCAR-5 ovarian): 40.7 µM
GI50 (HL-60(TB) leukemia): 2.12 µM
TGI (HL-60(TB) leukemia): 5.33 µM
GI50 (HT29 colon): 8.07 µM
TGI (HT29 colon): 51.8 µM
GI50 (SK-MEL-28 melanoma): 62.5 µM
TGI (SK-MEL-28 melanoma): > 100 µM
GI50 (NCI/ADR-RES ovarian): 16.3 µM
TGI (NCI/ADR-RES ovarian): > 100 µM
GI50 (COLO 205 colon): 5.15 µM
TGI (COLO 205 colon): 23.9 µM
GI50 (MDA-MB-435): 22.3 µM
TGI (MDA-MB-435): 50.6 µM
GI50 (OVCAR-8 ovarian): 6.62 µM
TGI (OVCAR-8 ovarian): 82.6 µM
GI50 (NCI-H460 lung): 27.4 µM
TGI (NCI-H460 lung): > 100 µM
GI50 (UACC-257 melanoma): 22.3 µM
TGI (UACC-257 melanoma): 55.5 µM
GI50 (SW-620 colon): 19.6 µM
TGI (SW-620 colon): 78.7 µM
GI50 (MALME-3M melanoma): 19.4 µM
TGI (MALME-3M melanoma): 52.9 µM
GI50 (RPMI-8226 leukemia): 11 µM
TGI (RPMI-8226 leukemia): 76.6 µM
GI50 (MDA-MB-231 breast): 16 µM
TGI (MDA-MB-231 breast): 74 µM
GI50 (T-47D breast): 11.6 µM
TGI (T-47D breast): 43.7 µM
GI50 (ACHN renal): > 100 µM
TGI (ACHN renal): > 100 µM
GI50 (K-562 leukemia): 26.1 µM
TGI (K-562 leukemia): > 100 µM
GI50 (NCI-H226 lung): 27.7 µM
TGI (NCI-H226 lung): > 100 µM
GI50 (SK-OV-3 ovarian): 39.3 µM
TGI (SK-OV-3 ovarian): > 100 µM
GI50 (HCC-2998 colon): 7.83 µM
TGI (HCC-2998 colon): 32 µM
GI50 (U251 CNS): 9.43 µM
TGI (U251 CNS): 22.8 µM
GI50 (OVCAR-3 ovarian): 2.45 µM
TGI (OVCAR-3 ovarian): 7.24 µM
GI50 (A498 renal): 33.4 µM
TGI (A498 renal): > 100 µM
GI50 (HS 578T breast): 6.26 µM
TGI (HS 578T breast): 43.1 µM
GI50 (LOX IMVI melanoma): 9.69 µM
TGI (LOX IMVI melanoma): 74.9 µM
GI50 (NCI-H522 lung): 2.14 µM
TGI (NCI-H522 lung): 9.44 µM
GI50 (SK-MEL-2 melanoma): > 100 µM
TGI (SK-MEL-2 melanoma): > 100 µM
GI50 (IGROV1 ovarian): 12.5 µM
TGI (IGROV1 ovarian): 32.9 µM
GI50 (OVCAR-4 ovarian): 3.11 µM
TGI (OVCAR-4 ovarian): 10.1 µM
GI50 (HCT-15 colon): 27 µM
TGI (HCT-15 colon): > 100 µM
GI50 (EKVX NSCLC): 21.3 µM
TGI (EKVX NSCLC): 61.8 µM
